Results: BindingDB's records for doi:10.7270/Q2G73C2Z (University of Pittsburgh, 2007)
pIC50: −log10 of the molar value.

Biological target: T1, Dual specificity protein phosphatase 6 (Rattus norvegicus, UniProt Q64346)
T1 sequence (Q64346 whole entry): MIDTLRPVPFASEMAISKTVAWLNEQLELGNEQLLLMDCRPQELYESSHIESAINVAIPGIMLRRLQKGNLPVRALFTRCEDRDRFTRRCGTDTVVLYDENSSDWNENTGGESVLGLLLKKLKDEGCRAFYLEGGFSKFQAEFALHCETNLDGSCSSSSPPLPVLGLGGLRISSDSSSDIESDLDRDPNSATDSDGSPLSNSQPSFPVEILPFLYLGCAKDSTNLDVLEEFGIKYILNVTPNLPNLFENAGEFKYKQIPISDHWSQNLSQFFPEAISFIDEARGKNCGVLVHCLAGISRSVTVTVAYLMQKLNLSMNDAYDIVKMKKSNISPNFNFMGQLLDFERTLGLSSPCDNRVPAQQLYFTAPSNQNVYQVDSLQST
Assay: MKP-3 phosphatase inhibitors, repeat potency, dose response, biochemical, rat DUSP6, reproducibility testing, probe assessment (AID 566)

SMILES	pIC50
Cc1ccc(C)n1-c1cccc(C(=O)O)c1	< 4.30
O=C(Nc1ccc2nc(-c3ccco3)c(-c3ccco3)nc2c1)N1CCCCCC1	< 4.30
CCCCCC#CCC#CCC#CCC#CCCCC(=O)O	< 4.30
Cn1ncnc2c(=O)n(C)c(=O)nc1-2	6.27
[O-]/[N+](=C\c1ccncc1)c1ccccc1	< 4.30
O=C1C=Cc2ccccc2C1=O [1,2-dihydronaphthalene-1,2-dione]	< 4.30
Cc1nc2cc(-c3cccc(F)c3)nn2c(C)c1CCC(=O)N1CCC2(CC1)OCCO2 [1-(1,4-dioxa-8-azaspiro[4.5]decan-8-yl)-3-[2-(3-fluorophenyl)-5,7-dimethyl-6-pyrazolo[1,5-a]pyrimidinyl]-1-propanone]	< 4.30
CCn1nc(-c2ccccc2)nc2c(=O)n(C)c(=O)nc1-2 [1-Ethyl-6-methyl-3-phenyl-1H-pyrimido[5,4-e][1,2,4]triazine-5,7-dione]	6.25
Cc1cc(C)n2c(SCC(=O)N3CCN(S(=O)(=O)c4ccc(Cl)cc4)CC3)nnc2n1 [1-[4-(4-chlorophenyl)sulfonyl-1-piperazinyl]-2-[(5,7-dimethyl-[1,2,4]triazolo[4,3-a]pyrimidin-3-yl)thio]ethanone]	< 4.30
[O-]/[N+](=C\c1ccc(OC(F)F)cc1)c1ccccc1 [1-[4-(difluoromethoxy)phenyl]-N-phenylmethanimine oxide]	< 4.30
CCCCn1c(SCC(=O)c2ccc(OC)cc2OC)nc2cc(S(N)(=O)=O)ccc21 [1-butyl-2-[2-(2,4-dimethoxyphenyl)-2-oxidanylidene-ethyl]sulfanyl-benzimidazole-5-sulfonamide]	< 4.30
CCn1nc(-c2cccs2)nc2c(=O)n(C)c(=O)nc1-2 [1-ethyl-6-methyl-3-thiophen-2-yl-pyrimido[5,4-e][1,2,4]triazine-5,7-dione]	6.35
O=C(Nc1ccccc1)c1ccc2nc(-c3ccco3)c(-c3ccco3)nc2c1 [2,3-di-2-furyl-N-phenyl-6-quinoxalinecarboxamide]	< 4.30
CC(C)Cn1c(N)c(C(=O)COC(=O)c2cc(-c3ccco3)nc3ccccc23)c(=O)n(C)c1=O [2-(2-furanyl)-4-quinolinecarboxylic acid [2-[4-amino-1-methyl-3-(2-methylpropyl)-2,6-dioxo-5-pyrimidinyl]-2-oxoethyl] ester]	< 4.30
CCOc1ccc(-c2cc3nc(C4CCN(C(=O)OC(C)(C)C)CC4)c(C(=O)O)cn3n2)cc1 [2-(4-ethoxyphenyl)-5-[1-[(2-methylpropan-2-yl)oxy-oxomethyl]-4-piperidinyl]-6-pyrazolo[1,5-a]pyrimidinecarboxylic acid]	< 4.30
COc1ccc(-c2cc3nc(C4CCN(C(=O)OC(C)(C)C)CC4)c(C(=O)O)cn3n2)cc1 [2-(4-methoxyphenyl)-5-[1-[(2-methylpropan-2-yl)oxy-oxomethyl]-4-piperidinyl]-6-pyrazolo[1,5-a]pyrimidinecarboxylic acid]	< 4.30
Cc1cccc(NC(=O)c2cc(NC(=O)C3CCCCC3C(=O)O)ccc2N2CCCCC2)c1 (configuration not stated) [2-({[3-{[(3-methylphenyl)amino]carbonyl}-4-(1-piperidinyl)phenyl]amino}carbonyl)cyclohexanecarboxylic acid]	< 4.30
Cc1ccc(/C=C/C2=Cc3c(sc(NC(=O)CSc4nnc(N)[nH]4)c3C#N)C(C)(C)C2)o1 [2-[(5-azanyl-1H-1,2,4-triazol-3-yl)sulfanyl]-N-[3-cyano-7,7-dimethyl-5-[(E)-2-(5-methylfuran-2-yl)ethenyl]-6H-1-benzothiophen-2-yl]ethanamide]	< 4.30
CCCCNC(=O)c1c(N)n(CCCOC)c2nc3ccccc3nc12 [2-amino-N-butyl-1-(3-methoxypropyl)-3-pyrrolo[3,2-b]quinoxalinecarboxamide]	< 4.30

SMILES	pIC50
N#Cc1c(N)sc(=S)c2c1CCN(Cc1ccccc1)C2 [3-Amino-7-benzyl-1-thioxo-5,6,7,8-tetrahydro-1H-thiopyrano[3,4-c]pyridine-4-carbonitrile]	5.68
O=C1C=C(NCc2ccc(Cl)c(Cl)c2)CC1 [3-[(3,4-dichlorobenzyl)amino]cyclopent-2-en-1-one]	< 4.30
CCCSc1nnc(NC(=O)c2sc3nc(-c4cccs4)ccc3c2N)s1 [3-amino-N-(5-propylsulfanyl-1,3,4-thiadiazol-2-yl)-6-thiophen-2-ylthieno[2,3-b]pyridine-2-carboxamide]	< 4.30
O=C1Nc2ccccc2SC(c2ccccc2)C1O (configuration not stated) [3-hydroxy-2-phenyl-2,3-dihydro-1,5-benzothiazepin-4(5H)-one]	< 4.30
CC(C)(C)N1C(=O)Cc2c1nc(N)c1c(N)nc(N3CCCCC3CO)c(C#N)c21 (configuration not stated) [5,6-bis(azanyl)-3-tert-butyl-8-[2-(hydroxymethyl)piperidin-1-yl]-2-oxidanylidene-1H-pyrrolo[2,3-c][2,7]naphthyridine-9-carbonitrile]	< 4.30
COc1cc(/C=C(/C#N)c2ccc(F)cc2)ccc1OCc1ccc(C(=O)O)o1 [5-({4-[2-cyano-2-(4-fluorophenyl)vinyl]-2-methoxyphenoxy}methyl)-2-furoic acid]	< 4.30
COc1ccc(Br)cc1C=c1sc2nc(-c3ccco3)nn2c1=O [5-[(5-bromanyl-2-methoxy-phenyl)methylidene]-2-(furan-2-yl)-[1,3]thiazolo[3,2-b][1,2,4]triazol-6-one]	< 4.30
CCOc1cc(/C=C(/C#N)c2ccc(F)cc2)ccc1OCc1ccc(C(=O)O)o1 [5-[[4-[(E)-2-cyano-2-(4-fluorophenyl)ethenyl]-2-ethoxyphenoxy]methyl]furan-2-carboxylic acid]	< 4.30
N#Cc1c(NC(=O)c2ccc(Br)o2)n(-c2ccccc2)c2nc3ccccc3nc12 [5-bromanyl-N-(3-cyano-1-phenyl-pyrrolo[3,2-b]quinoxalin-2-yl)furan-2-carboxamide]	4.81
Cc1cccc(N2CCN(C(=O)Cc3c(C(=O)O)[nH]c4ccc(Cl)cc34)CC2)c1C [5-chloranyl-3-[2-[4-(2,3-dimethylphenyl)piperazin-1-yl]-2-oxidanylidene-ethyl]-1H-indole-2-carboxylic acid]	< 4.30
CCCCCNC(=O)c1ccc2c(=O)[nH]c3c(C(=O)NCC4CCCO4)sc(=S)n3c2c1 (configuration not stated) [5-oxo-N3-(2-oxolanylmethyl)-N8-pentyl-1-sulfanylidene-4H-thiazolo[3,4-a]quinazoline-3,8-dicarboxamide]	< 4.30
Cc1nc2c(C(=O)NCCC3=CCCCC3)c[nH]n2c(=O)c1Cl [6-chloro-N-(2-cyclohex-1-en-1-ylethyl)-7-hydroxy-5-methylpyrazolo[1,5-a]pyrimidine-3-carboxamide]	< 4.30
O=C(c1cccs1)c1no[n+]([O-])c1C(=O)c1cccs1 [(5-oxidanidyl-4-thiophen-2-ylcarbonyl-1,2,5-oxadiazol-5-ium-3-yl)-thiophen-2-yl-methanone]	< 4.30
Nc1c(N2CCCC2)cc(Cl)c2nonc12 [(7-chloro-5-pyrrolidino-benzofurazan-4-yl)amine]	< 4.30
[O-]/[N+](=C/c1ccc(F)cc1)c1ccccc1 [(E)-(4-fluorobenzylidene)(phenyl)azane oxide]	< 4.30
CC1=C(/C=C/C(C)=C/C=C/C(C)=C/C(=O)O)C(C)(C)CCC1 [ALL-TRANS-RETINOIC ACID]	< 4.30
CC(=O)[C@@H]1[C@@H]2C(=O)N(c3ccc(F)c(Cl)c3)C(=O)[C@@H]2C2c3ccccc3C=CN21 (some centres not stated) [MLS000040594]	4.33
COCCCn1c(N)c(C(=O)NCCC(C)C)c2nc3ccccc3nc21 [MLS000041744]	< 4.30
CCn1c(SCC(=O)Nc2ccc3c(c2)c2ccccc2n3CC)nnc1-c1ccco1 [MLS000050867]	< 4.30

SMILES	pIC50
O=C1C(=C2C(=O)c3ccccc3C2=O)Nc2ccccc21 [MLS000071738]	< 4.30
COc1ccc(-n2c(NC(=O)c3ccco3)c(C#N)c3nc4ccccc4nc32)cc1 [MLS000079925]	4.85
COc1ccc(Cn2c(C)nc3c(c2=O)c2nc4ccccc4nc2n3Cc2ccco2)cc1 [MLS000079944]	< 4.30
Cc1ccc(-c2csc(NC(=O)c3ccno3)n2)cc1 [MLS000081820]	< 4.30
CC(C)Sc1nc2sc3c(c2c2nnc(SCC(=O)NCc4ccco4)n12)CCCC3 [MLS000082957]	< 4.30
Nc1nc2c(s1)CCc1c-2cnn1-c1ccccc1 [MLS000085948]	< 4.30
Cc1cc(NC(=O)c2ccc(S(=O)(=O)N3CCCC3)cc2)nc2c1c(=O)oc1ccccc12 [MLS000091355]	< 4.30
FC(F)(F)c1ccc(N2CCOCC2)c(Nc2nc3ccccc3n3cnnc23)c1 [MLS000093276]	< 4.30
COC(=O)c1ccccc1NC(=O)CN1C(=O)C2CCCN2c2ncc(Cl)cc21 (configuration not stated) [MLS000094302]	< 4.30
CCc1ccc(NC(=O)CSc2nc3ccccc3c(=O)n2CCN2CCOCC2)cc1 [MLS000095236]	< 4.30
Cc1c(N=c2c(=O)c3ccccc3c2=O)c(=O)n(-c2ccccc2)n1C [MLS000105950]	5.09
CCOc1ccc2noc3c2c1C(=O)c1ccccc1-3 [MLS000106837]	< 4.30
COc1ccc2noc3c2c1C(=O)c1ccccc1-3 [MLS000106874]	4.65
CCOC(=O)c1ccc2c(c1)C1C=CCC1C(C(=O)O)N2 (configuration not stated) [MLS-0025126.0001]	< 4.30
O=C(NC1(O)C(=O)c2ccccc2C1=O)c1ccccc1 [N-(2-hydroxy-1,3-dioxo-2-indenyl)benzamide]	4.70
O=C(OC1CCCCC1)c1ccc2c(c1)C1C=CCC1C(C(=O)O)N2 (configuration not stated) [SMR000019385]	< 4.30
O=C1c2ccccc2-c2onc3ccc(NCCCn4ccnc4)c1c23 [SMR000044769]	< 4.30
CCCCn1c(NC(=O)c2ccccc2)c(C#N)c2nc3ccccc3nc21 [SMR000060333]	4.74
N#Cc1c(N2CCCC2)nc(N)c2c(N)nc(N3CCCC3)cc12 [SMR000061605]	5.46
